# Measurements: publication PMC6554663, “Pharmaceutical Effects of Inhibiting the Soluble Epoxide Hydrolase in Canine Osteoarthritis” (Frontiers in Pharmacology, 2019)
# “And” between values parts separate entries of the source, which are not always exact repeats. Identical values can stand only once. Like-named read-outs stand apart in the source and are kept apart here.
# Tests used:
# [1] = Solubility of sEHI; format: physicochemical; details: PEG300, organic solvent or mixture
# Procedure: […] The non-dissolved compounds were filtered through a 0.22 μm centrifuge filter at 40°C and the supernatant was further diluted 10 times with methanol. The samples were analyzed by LC/MS-MS.
# [2] = Microsomal stability; format: in vitro ADME, dog; details: for % Parent + NADPH / % Parent − NADPH: 60 min, 37°C
# Procedure: Male and female dog liver microsomes (Xenotech) were diluted in potassium phosphate buffer (0.1M, pH 7.4), MgCl2 (3.15 mM), and sodium EDTA (1.05 mM) to a final protein concentration of 1 mg/mL. Compounds were added at 0.1 mM in methanol at 1% and microsomes were activated with 5% (v/v) NADPH regenerating system (100 μL sodium phosphate buffer (0.1M, pH 7.4), 50 μL, glucose-6-phosphate in sodium phosphate buffer (0.1M, pH 7.4), 50 μL NADP+ in sodium phosphate (0.1M, pH 7.4), and 50 μL of 100 Units/mL of […]). […] Compounds were incubated without microsomes or NADPH as negative controls.
# [3] = PK analysis in satellite dogs; format: in vivo, dog; details: beagle, dog, whole blood; for AUC(0-t) / Cmax: detected EC1728, blood
# Procedure: (§1) Eight satellite dogs (2 per each group) had whole blood collected for PK analysis on study Days […]. On Day 1, blood was collected immediately prior to dosing, and again at 0.25, 0.5, 1, 2, 4, 6, and 8 (±5 min) after dosing. On Day 2 through 4, blood was collected 0.5 h (±5 min) after dosing. On Day 5 blood was collected immediately prior to dosing, and again at 0.25, 0.5, 1, 2, 4, 6, 8 (±5 min), 24, 48, and 72 h (±30 min) post treatment. […] For all blood samples, a minimum of 3 mL of whole blood was collected from a suitable vein as per written and approved standard operating procedures. The blood was transferred to K2EDTA (spray dried) blood tube and inverted gently multiple times to ensure proper mixing of the blood and anticoagulant. On study Day 5, synovial fluid was collected by arthrocentesis immediately after the subject completed the questionnaire (approximately […] after dosing). Subjects were anesthetized as per written and approved Standard Operating Procedures. A minimum of 0.1 mL of synovial fluid was collected from each subject. Samples were frozen in an upright position and stored at -80°C ± 4°C before being shipped to UC Davis for analysis.
# For PK analysis in the satellite group, individual parameters were calculated by fitting blood concentrations to a non-compartmental analysis using Kinetica software (Thermo Fisher Scientific version 5.1). Using the log-linear trapezoidal method, the area under the curve were calculated and were extrapolated to infinity using the last measured plasma concentration (Clast), defined as the timepoint collected 72 h after the last dose or 8 hr after the first dose on day 1, divided by the terminal slope (λz).
# [4] = Blood and synovial fluid concentrations in treated osteoarthritic dogs; format: in vivo, dog; details: for concentration at 2 h: beagle, dog, oral, EC1728 5 mg/kg; for Blood concentration D5 / Synovial fluid concentration D1 / Synovial fluid concentration D5: po, qd x 5, detected EC1728, individual dogs;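 on Synovial fluid concentration D1: synovial fluid also sampled on Day 1 after the pain assessment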
# Procedure: as §1
# Pain and function were assessed by a questionnaire answered by blinded technicians based on observation of study animals housed at InterVivo. The survey was adapted from the canine brief pain inventory (CBPI), which was developed based on clinical questionnaires in which owners score the function and pain level of their pets with existing pain conditions ([Brown et al., 2007]). Modifications to the questionnaire attempted to account for differences between owner pain evaluation of pets and pain evaluation of laboratory dogs by technical staff. For survey administration, blinded technicians attempted to elicit objective behavior-specific measures of function and pain level across a variety of normal canine behaviors (e.g., walking, trotting, galloping, rearing, and stair-climbing, etc.). For this, one technician was responsible for soliciting the relevant behaviors from a dog using encouragement and/or food rewards, while the evaluating technician scored function and observable pain using the modified CBPI questionnaire. Subjects were tested daily on Days -7 through -3, to develop baseline scores, and again on Days 1 through 5 administered 1.5 h after dosing. Dosing occurred in the morning, and observations were recorded 1.5 h after dosing, to limit time-of-day variability. Questions are listed in Supplementary Table S3. Animals in treatment groups had blood and synovial fluid collected ∼2 h after the last dose on day 5 (immediately following the study questionnaire) to confirm plasma concentrations in treated animals. Full pharmacokinetic assessments were collected from a satellite group of animals so as not to interfere with pain assessment.
# [5] = female, po, 1 mg/kg, dosed EC1728 1 mg/kg oral qd, female dog, Day 1
# [6] = female, po, 1 mg/kg, dosed EC1728 1 mg/kg oral qd, female dog, Day 5
# [7] = female, po, 5 mg/kg, dosed EC1728 5 mg/kg oral qd, female dog, Day 1
# [8] = female, po, 5 mg/kg, dosed EC1728 5 mg/kg oral qd, female dog, Day 5
# [9] = male, po, 1 mg/kg, dosed EC1728 1 mg/kg oral qd, male dog, Day 1
# [10] = male, po, 1 mg/kg, dosed EC1728 1 mg/kg oral qd, male dog, Day 5
# [11] = male, po, 5 mg/kg, dosed EC1728 5 mg/kg oral qd, male dog, Day 1
# [12] = male, po, 5 mg/kg, dosed EC1728 5 mg/kg oral qd, male dog, Day 5
compound,measurement,setting,value
"O=C(Nc1ccc(OC(F)(F)F)cc1)N[C@H]1CC[C@H](Oc2ccc(C(=O)O)cc2)CC1 [EC1728, trans-4-{4-[3-(4-trifluoromethoxy-phenyl)-ureido]-cyclohexyloxy}-benzoic acid]",solubility,[1],97 ± 2 mg/mL
same,% Parent + NADPH,[2]; female dog liver microsomes,98 ± 6%
same,% Parent − NADPH,[2]; female dog liver microsomes,106 ± 9%
same,% Parent + NADPH,[2]; male dog liver microsomes,103 ± 6%
same,% Parent − NADPH,[2]; male dog liver microsomes,108 ± 8%
same,"remaining at 1 h, 1 µM","[2]; pH 7.4, dog liver microsomes, 60-min incubation, sex not specified",> 95%
same,half-life,"[3]; oral, satellite dogs, range over both compounds, Table 3, read-out: half-life",24 to 40 h
same,AUC(0-t),[3]; [5],1350 ng·h/mL
same,Cmax,[3]; [5],308 ng/mL
same,AUC(0-t),[3]; [6],155000 ng·h/mL
same,Cmax,[3]; [6],4660 ng/mL
same,half-life,"[3]; female, po, 1 mg/kg, read-out: T1/2 (converted)",33 h
same,AUC(0-t),[3]; [7],4940 ng·h/mL
same,Cmax,[3]; [7],1160 ng/mL
same,AUC(0-t),[3]; [8],53200 ng·h/mL
same,Cmax,[3]; [8],4990 ng/mL
same,half-life,"[3]; female, po, 5 mg/kg, read-out: T1/2 (converted)",23 h
same,AUC(0-t),[3]; [9],1690 ng·h/mL
same,Cmax,[3]; [9],330 ng/mL
same,AUC(0-t),[3]; [10],32000 ng·h/mL
same,Cmax,[3]; [10],1900 ng/mL
same,half-life,"[3]; male, po, 1 mg/kg, read-out: T1/2 (converted)",27 h
same,AUC(0-t),[3]; [11],3760 ng·h/mL
same,Cmax,[3]; [11],1100 ng/mL
same,AUC(0-t),[3]; [12],96300 ng·h/mL
same,Cmax,[3]; [12],1930 ng/mL
same,half-life,"[3]; male, po, 5 mg/kg, read-out: T1/2 (converted)",25 h
same,concentration at 2 h,"[4]; blood, 5 mg/kg, day 5, group without dog 2.4, read-out: Blood concentration, average for the remainder of the group",395 ng/mL
same,concentration at 2 h,"[4]; synovial fluid, 5 mg/kg, day 5, read-out: Synovial fluid concentration, averaged for the group",988 ng/mL
same,concentration at 2 h,"[4]; synovial fluid, 5 mg/kg, dog 2.4 (low exposure, removed from analysis), read-out: Synovial fluid concentration, dog 2.4",80 to 95 ng/mL
same,Blood concentration D5,"[4]; dosed EC1728 1 mg/kg, 1 mg/kg",31 ng/mL and 72 ng/mL and 76 ng/mL and 64 ng/mL and 82 ng/mL and 40 ng/mL and 36 ng/mL and 171 ng/mL
same,Synovial fluid concentration D1,"[4]; dosed EC1728 1 mg/kg, 1 mg/kg",331 ng/mL and 206 ng/mL and 455 ng/mL and 232 ng/mL and 483 ng/mL and 111 ng/mL and 384 ng/mL and 917 ng/mL
same,Synovial fluid concentration D5,"[4]; dosed EC1728 1 mg/kg, 1 mg/kg",239 ng/mL and 206 ng/mL and 378 ng/mL and 328 ng/mL and 315 ng/mL and 171 ng/mL and 214 ng/mL and 945 ng/mL
same,Blood concentration D5,"[4]; dosed EC1728 5 mg/kg, 5 mg/kg",34 ng/mL and 206 ng/mL and 348 ng/mL and 314 ng/mL and 935 ng/mL and 228 ng/mL and 493 ng/mL and 244 ng/mL
same,Synovial fluid concentration D1,"[4]; dosed EC1728 5 mg/kg, 5 mg/kg",2270 ng/mL and 301 ng/mL and 1180 ng/mL and 2220 ng/mL and 1470 ng/mL and 460 ng/mL and 95 ng/mL
same,Synovial fluid concentration D5,"[4]; dosed EC1728 5 mg/kg, 5 mg/kg",1000 ng/mL and 1150 ng/mL and 833 ng/mL and 1330 ng/mL and 672 ng/mL and 668 ng/mL and 2170 ng/mL and 80 ng/mL
